Experimental data published in ChEMBL document CHEMBL5365447, “Pronucleotides of 2',3'-Dideoxy-2',3'-Didehydrothymidine as Potent Anti-HIV Compounds” (J Med Chem, 2023).
Calls of active or inactive are those of the source. No cut-off for these calls is given here.

Assays:
[1] = Retention time of the compound by HPLC analysis; assay type: physicochemical
[2] = Chemical stability of the compound in phosphate buffer saline assessed as half life at pH 7.3 by HPLC analysis; assay type: physicochemical; details: phosphate buffered saline
[3] = Prodrug conversion in pH 7.3 phosphate buffer assessed as ((2S,5R)-5-(5-methyl-2,4-dioxo-3,4-dihydropyrimidin-1(2H)-yl)-2,5-dihydrofuran-2-yl)methyl dihydrogen phosphate formation by measuring half life in presence of pig liver esterase by HPLC analysis; assay type: ADME
[4] = Prodrug conversion in human CEM/0 cell extract assessed as metabolite formation by measuring half life by HPLC analysis; assay type: ADME; details: ccrf-cem
[5] = Prodrug conversion in human CEM/0 cell extract assessed as ((2S,5R)-5-(5-methyl-2,4-dioxo-3,4-dihydropyrimidin-1(2H)-yl)-2,5-dihydrofuran-2-yl)methyl tri-hydrogen diphosphate formation by HPLC analysis; assay type: ADME; details: ccrf-cem
[6] = Prodrug conversion in human CEM/0 cell extract assessed as ((2S,5R)-5-(5-methyl-2,4-dioxo-3,4-dihydropyrimidin-1(2H)-yl)-2,5-dihydrofuran-2-yl)methyl dihydrogen phosphate formation by HPLC analysis; assay type: ADME; details: ccrf-cem
[7] = system: Human immunodeficiency virus 1; experiment: Antiviral activity against HIV-1 HE infected in wild-type human CEM/0 cells assessed as inhibition of virus-induced cytopathic effect incubated for 4 to 5 days by light microscopic analysis; assay type: functional, organism-based; details: Human immunodeficiency virus 1, HE, CCRF-CEM
[8] = system: Human immunodeficiency virus 2; experiment: Antiviral activity against HIV-2 ROD infected in wild-type human CEM/0 cells assessed as inhibition of virus-induced cytopathic effect incubated for 4 to 5 days by light microscopic analysis; assay type: functional, organism-based; details: Human immunodeficiency virus 2, ROD, CCRF-CEM
[9] = system: Human immunodeficiency virus 2; experiment: Antiviral activity against HIV-2 ROD infected in thymidine kinase-deficient human CEM cells assessed as inhibition of virus-induced cytopathic effect incubated for 4 to 5 days by light microscopic analysis; assay type: functional, organism-based; details: Human immunodeficiency virus 2, ROD, CCRF-CEM
[10] = Cytotoxicity against human CEM cells assessed as reduction in cell viability incubated for 4 to 5 days by light microscopic analysis; assay type: toxicity, cell-based; details: CEM cells (CCRF-CEM), time 4-5 day
[11] = Selectivity index, ratio of CC50 for human CEM cells to EC50 for HIV-2 ROD infected in thymidine kinase-deficient human CEM cells; assay type: toxicity; details: read-out: Ratio CC50/EC50
[12] = system: Human immunodeficiency virus; experiment: Substrate activity at HIV reverse transcriptase measured after 4 hrs by electrophoresis based primer extension assay
[13] = biological target: T1, DNA polymerase alpha catalytic subunit (Homo sapiens) (UniProt P09884); experiment: Substrate activity at human DNA polymerase alpha measured after 4 hrs by electrophoresis based primer extension assay
T1 sequence (whole entry): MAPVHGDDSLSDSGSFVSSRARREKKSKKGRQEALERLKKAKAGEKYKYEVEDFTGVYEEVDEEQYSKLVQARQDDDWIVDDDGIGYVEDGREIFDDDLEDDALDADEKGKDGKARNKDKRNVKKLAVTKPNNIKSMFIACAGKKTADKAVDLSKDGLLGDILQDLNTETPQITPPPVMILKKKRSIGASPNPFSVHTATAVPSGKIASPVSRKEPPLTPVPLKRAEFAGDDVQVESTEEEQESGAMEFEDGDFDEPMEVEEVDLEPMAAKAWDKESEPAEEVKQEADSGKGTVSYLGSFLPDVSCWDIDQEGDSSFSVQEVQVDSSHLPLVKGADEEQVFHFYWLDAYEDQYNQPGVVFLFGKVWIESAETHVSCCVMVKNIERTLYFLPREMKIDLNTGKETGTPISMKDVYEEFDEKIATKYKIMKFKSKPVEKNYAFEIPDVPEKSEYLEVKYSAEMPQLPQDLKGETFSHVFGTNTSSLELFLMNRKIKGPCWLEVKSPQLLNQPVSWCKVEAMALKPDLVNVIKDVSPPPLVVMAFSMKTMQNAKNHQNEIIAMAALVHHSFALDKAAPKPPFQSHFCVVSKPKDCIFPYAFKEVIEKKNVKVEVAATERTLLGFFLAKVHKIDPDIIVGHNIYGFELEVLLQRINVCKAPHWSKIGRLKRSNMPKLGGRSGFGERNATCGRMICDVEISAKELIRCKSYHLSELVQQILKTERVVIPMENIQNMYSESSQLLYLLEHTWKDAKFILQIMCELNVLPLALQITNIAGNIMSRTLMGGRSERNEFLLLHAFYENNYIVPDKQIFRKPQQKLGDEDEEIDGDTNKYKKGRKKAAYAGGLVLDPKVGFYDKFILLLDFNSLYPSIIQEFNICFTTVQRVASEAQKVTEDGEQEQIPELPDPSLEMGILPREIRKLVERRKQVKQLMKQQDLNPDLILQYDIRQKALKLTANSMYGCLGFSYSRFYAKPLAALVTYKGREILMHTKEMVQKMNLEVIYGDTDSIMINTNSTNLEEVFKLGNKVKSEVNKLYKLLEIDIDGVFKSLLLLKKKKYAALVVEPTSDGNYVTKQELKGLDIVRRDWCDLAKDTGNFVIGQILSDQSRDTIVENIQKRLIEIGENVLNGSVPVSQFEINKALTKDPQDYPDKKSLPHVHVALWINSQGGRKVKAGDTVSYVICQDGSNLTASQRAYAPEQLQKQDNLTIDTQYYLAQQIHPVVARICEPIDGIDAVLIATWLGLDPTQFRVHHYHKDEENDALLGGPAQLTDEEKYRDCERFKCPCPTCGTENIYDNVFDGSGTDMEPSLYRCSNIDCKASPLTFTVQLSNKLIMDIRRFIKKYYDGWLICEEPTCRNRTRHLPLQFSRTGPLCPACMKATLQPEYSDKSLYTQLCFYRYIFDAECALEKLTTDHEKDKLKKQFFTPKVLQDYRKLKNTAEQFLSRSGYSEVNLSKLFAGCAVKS

[14] = biological target: DNA polymerase beta (Homo sapiens) (UniProt P06746); experiment: Substrate activity at human DNA polymerase beta measured after 4 hrs by electrophoresis based primer extension assay
[15] = biological target: T2, DNA polymerase subunit gamma-1 (Homo sapiens) (UniProt P54098); experiment: Substrate activity at human DNA polymerase gamma measured after 4 hrs by electrophoresis based primer extension assay
T2 sequence (whole entry): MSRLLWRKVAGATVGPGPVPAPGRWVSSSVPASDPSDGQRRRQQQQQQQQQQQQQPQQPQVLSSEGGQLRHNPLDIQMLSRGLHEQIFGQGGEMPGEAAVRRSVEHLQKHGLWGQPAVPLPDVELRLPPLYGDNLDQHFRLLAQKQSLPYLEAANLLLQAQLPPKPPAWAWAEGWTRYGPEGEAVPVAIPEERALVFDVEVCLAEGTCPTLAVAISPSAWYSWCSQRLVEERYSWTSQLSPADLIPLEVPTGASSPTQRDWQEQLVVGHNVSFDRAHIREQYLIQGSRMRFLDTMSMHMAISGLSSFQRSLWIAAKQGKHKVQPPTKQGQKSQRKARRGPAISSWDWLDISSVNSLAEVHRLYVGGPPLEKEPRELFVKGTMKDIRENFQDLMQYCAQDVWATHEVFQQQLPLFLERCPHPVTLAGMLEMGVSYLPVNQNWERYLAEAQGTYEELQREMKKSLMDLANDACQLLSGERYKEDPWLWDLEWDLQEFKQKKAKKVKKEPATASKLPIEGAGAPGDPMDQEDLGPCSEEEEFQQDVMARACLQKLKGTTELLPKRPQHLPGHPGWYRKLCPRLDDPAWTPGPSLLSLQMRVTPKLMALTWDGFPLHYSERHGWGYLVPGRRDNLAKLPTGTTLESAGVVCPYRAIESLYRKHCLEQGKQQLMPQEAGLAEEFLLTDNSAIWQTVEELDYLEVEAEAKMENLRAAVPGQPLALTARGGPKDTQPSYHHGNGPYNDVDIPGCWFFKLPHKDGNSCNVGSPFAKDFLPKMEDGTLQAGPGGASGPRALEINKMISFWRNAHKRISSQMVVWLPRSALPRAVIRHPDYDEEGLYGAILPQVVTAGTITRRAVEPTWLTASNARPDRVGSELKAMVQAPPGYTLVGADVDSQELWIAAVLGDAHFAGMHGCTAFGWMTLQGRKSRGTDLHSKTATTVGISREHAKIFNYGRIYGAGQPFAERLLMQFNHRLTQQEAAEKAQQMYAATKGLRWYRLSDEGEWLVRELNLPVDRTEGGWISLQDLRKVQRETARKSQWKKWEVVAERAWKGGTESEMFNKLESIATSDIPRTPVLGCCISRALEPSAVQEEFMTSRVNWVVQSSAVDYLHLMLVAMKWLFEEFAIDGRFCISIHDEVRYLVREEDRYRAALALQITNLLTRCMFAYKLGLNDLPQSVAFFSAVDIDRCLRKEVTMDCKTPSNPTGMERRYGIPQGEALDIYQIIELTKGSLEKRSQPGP

[16] = Chemical stability of the compound in phosphate buffer assessed as half life at pH 7.3 by HPLC analysis; assay type: physicochemical
[17] = Prodrug conversion in pH 7.3 phosphate buffer assessed as ((2S,5R)-5-(5-methyl-2,4-dioxo-3,4-dihydropyrimidin-1(2H)-yl)-2,5-dihydrofuran-2-yl)methyl tri-hydrogen diphosphate formation by measuring half life in presence of pig liver esterase by HPLC analysis; assay type: ADME
[18] = Prodrug conversion in human CEM/0 cell extract assessed as ((2S,5R)-5-(5-methyl-2,4-dioxo-3,4-dihydropyrimidin-1(2H)-yl)-2,5-dihydrofuran-2-yl)methyl tetrahydrogen triphosphate formation by HPLC analysis; assay type: ADME; details: ccrf-cem
[19] = system: Human immunodeficiency virus 1; experiment: Potency index, ratio of 3'-deoxy-2',3'-dehydrothymidine EC50 to compound EC50 for antiviral activity against HIV-1 HE infected in wild-type human CEM/0 cells; assay type: functional
[20] = system: Human immunodeficiency virus 2; experiment: Potency index, ratio of 3'-deoxy-2',3'-dehydrothymidine EC50 to compound EC50 for antiviral activity against HIV-2 ROD infected in wild-type human CEM/0 cells; assay type: functional
[21] = system: Human immunodeficiency virus 2; experiment: Potency index, ratio of 3'-deoxy-2',3'-dehydrothymidine EC50 to compound EC50 for antiviral activity against HIV-2 ROD infected in thymidine kinase-deficient human CEM[…] cells; assay type: functional

SMILES	Retention_time [1]	half-life [2]	t1/2 [4]	Drug metabolism [5]	Drug metabolism [6]	EC50 [7]	EC50 [8]	EC50 [9]	Activity [12]	Activity [13]	Activity [14]	Activity [15]	half-life [16]	t1/2 [17]	t1/2 [3]	CC50 [10]	selectivity ratio [11]	Drug metabolism [18]	Ratio EC50 [19]	Ratio EC50 [20]	also measured
CCCCCCCCCCCCCCCCCCOP(=O)(OCCCC)OP(=O)(O)OP(=O)(O)OC[C@@H]1C=C[C@H](n2cc(C)c(=O)[nH]c2=O)O1.N.N (stereo partly specified)	16.2 min		> 10 h	Metabolite_Detected					Active	inactive	inactive	inactive	990 h	> 150 h		30000 nM	938	Metabolite_Notdetected	4	4	Ratio EC50 [21]: 10000
CCCCCCCCCCCCCCCCCCP(=O)(OCCCC)OP(=O)(O)OP(=O)(O)OC[C@@H]1C=C[C@H](n2cc(C)c(=O)[nH]c2=O)O1.N.N (stereo partly specified)	15.9 min		> 15 h	Metabolite_Detected					inactive	inactive	inactive	inactive	> 1700 h	> 150 h		33000 nM		Metabolite_Notdetected			
CCCCCCCCCCCCCCCCCCP(=O)(OCCCC)OP(=O)(O)OC[C@@H]1C=C[C@H](n2cc(C)c(=O)[nH]c2=O)O1.N (stereo partly specified)	18.5 min	> 125 days	> 40 h	Metabolite_Notdetected	Metabolite_Detected	31 nM	16 nM	2 nM	Active	inactive	inactive	inactive			> 150 h	42600 nM	20300				

Second part, led by results:

Retention_time [1]	half-life [2]	t1/2 [4]	Drug metabolism [5]	Drug metabolism [6]	EC50 [7]	EC50 [8]	EC50 [9]	Activity [12]	Activity [13]	Activity [14]	Activity [15]	half-life [16]	t1/2 [17]	SMILES	t1/2 [3]	CC50 [10]	selectivity ratio [11]	Drug metabolism [18]	Ratio EC50 [19]	Ratio EC50 [20]	also measured
18.9 min	> 41.7 days	> 18 h	Metabolite_Notdetected	Metabolite_Detected	33 nM	4 nM	1 nM	inactive	inactive	inactive	inactive			CCCCCCCCCCCCCCCCCCOP(=O)(OCCCC)OP(=O)(O)OC[C@@H]1C=C[C@H](n2cc(C)c(=O)[nH]c2=O)O1.N (stereo partly specified)	> 150 h	41300 nM	37500				
15.6 min		> 15 h			77 nM	25 nM	15 nM	Active	inactive	inactive	inactive	790 h	> 150 h	CCCCCCCCCCCCCCCCCCOP(=O)(OC)OP(=O)(O)OP(=O)(O)OC[C@@H]1C=C[C@H](n2cc(C)c(=O)[nH]c2=O)O1.N.N (stereo partly specified)		34000 nM	2270		4	4	Ratio EC50 [21]: 10000
20.8 min	> 41.7 days		Metabolite_Notdetected	Metabolite_Detected	71 nM	45 nM	11 nM		inactive	inactive	inactive			CCCCCCCCCCCCCCCCCCOP(=O)(OCCCCCCCC)OP(=O)(O)OC[C@@H]1C=C[C@H](n2cc(C)c(=O)[nH]c2=O)O1.N (stereo partly specified)		46500 nM	4220				Drug metabolism [3]: Metabolite_Notdetected; Drug metabolism [4]: Metabolite_Notdetected
